Reference: patent US8173682B2, “Substituted pyridones as inhibitors of poly(ADP-ribose) polymerase (PARP)” (Aventis Pharmaceuticals Inc., priority 2004, dated 2012)
Counter-ions that a name gives are not always drawn.

What follows are molecules tested against T1, recombinant human PARP (PARP1) (Homo sapiens, UniProt P09874) (assay: PARP enzyme assay, Method A (radioactivity or 'ELISA' enzyme assay with partially purified enzyme)). Details: recombinant human PARP preparation, radioactive or ELISA enzyme assay.
T1 construct: Full length human PARP (PARP1) is assembled from PCR fragments; His6 tag with TEV site, from the pFastBac-HTb vector (own knowledge of the vector); made in house; host or cells: insect cells, baculovirus (Bac-to-Bac, Gibco-BRL)
T1 sequence (P09874 whole entry, the tested form may be a part): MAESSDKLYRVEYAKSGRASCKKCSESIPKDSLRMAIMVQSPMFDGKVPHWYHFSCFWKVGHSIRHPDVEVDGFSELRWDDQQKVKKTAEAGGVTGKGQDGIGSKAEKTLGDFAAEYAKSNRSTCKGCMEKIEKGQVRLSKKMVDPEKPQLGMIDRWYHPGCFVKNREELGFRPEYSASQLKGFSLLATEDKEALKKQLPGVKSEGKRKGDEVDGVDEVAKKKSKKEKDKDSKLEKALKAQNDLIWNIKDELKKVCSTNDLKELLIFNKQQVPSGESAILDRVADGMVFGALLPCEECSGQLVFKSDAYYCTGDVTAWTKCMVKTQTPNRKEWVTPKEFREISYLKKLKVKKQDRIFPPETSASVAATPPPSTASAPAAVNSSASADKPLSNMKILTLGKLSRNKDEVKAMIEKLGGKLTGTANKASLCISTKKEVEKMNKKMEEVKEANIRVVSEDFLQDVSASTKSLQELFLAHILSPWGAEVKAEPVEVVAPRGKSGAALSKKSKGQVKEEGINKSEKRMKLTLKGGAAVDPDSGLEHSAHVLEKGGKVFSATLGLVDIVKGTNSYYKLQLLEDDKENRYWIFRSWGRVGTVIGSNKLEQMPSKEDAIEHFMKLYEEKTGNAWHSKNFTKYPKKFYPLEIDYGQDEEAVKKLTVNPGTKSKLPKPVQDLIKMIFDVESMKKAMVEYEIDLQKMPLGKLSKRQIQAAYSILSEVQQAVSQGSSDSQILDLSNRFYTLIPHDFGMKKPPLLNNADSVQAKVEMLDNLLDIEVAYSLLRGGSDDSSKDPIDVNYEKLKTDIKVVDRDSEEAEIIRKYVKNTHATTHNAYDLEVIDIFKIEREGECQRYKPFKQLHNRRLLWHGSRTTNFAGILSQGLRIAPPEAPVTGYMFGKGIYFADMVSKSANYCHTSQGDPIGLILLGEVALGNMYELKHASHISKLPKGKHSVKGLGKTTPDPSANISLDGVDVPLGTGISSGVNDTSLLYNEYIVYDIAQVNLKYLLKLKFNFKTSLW
Assay type: biochemical
From the text: Two different methods are employed in determining the activity of the compounds of this invention in inhibiting the activity of PARP enzyme, designated as Method A and Method B respectively as set forth below.
Method A: Cloning and Expression, and Partial Purification of Recombinant Human PARP:
Full length human PARP (PARP1) is assembled from PCR fragments of a clone from a human brain cDNA library and two Incyte clones. The PARP gene (3046 bp) is sub-cloned into pFastBac-HTb vector to give PARP-pFastBac-HTb and the sequence of this clone is verified. PARP-pFastBac-HTb is expressed to obtain protein using the Bac-to-Bac expression protocol from Gibco-BRL. The recombinant virus generated is used to scale up the material for purification.
Cell pellets from cell broth of cells expressing PARP are treated with a cocktail of protease inhibitors and lysed by 4 freeze-thaw cycles. The material is suspended in 10 mM HEPES/0.1M NaCl/pH 7.2, stirred, and then centrifuged. A 40%-70% ammonium sulfate cut of protein pellet is obtained from the supernatant. The pellet is solubilized in 10 mM HEPES/pH 7.2 and centrifuged. The supernatant buffer is exchanged to 10 mM HEPES/pH 7.2/0.1M NaCl/25% glycerol by dialysis or with a desalting column. The enzyme preparation is stored at −20° C. until use.
The compounds of this invention are then tested with this enzyme preparation using either the radioactive enzyme assay or by the “ELISA” enzyme assay as set forth below.
Radioactivity Enzyme Assay:
Incorporation of radioactivity from labeled NAD into acid-precipitated protein is measured. The reaction mixture (volume 100 μL or 50 μL, in a test-tube or 96-well plate) contained 100 μg/mL calf thymus DNA (sonicated), 100 μg/mL histones, 100 mM Tris (pH 8.0), 1.0 mM DTT, 10 mM MgCl2, NAD (200 μM, 0.65 microcurie/mL), and varying amounts of enzyme. The reaction was incubated for 10 min at 37° C. or at room temperature for 60 min. The reaction was stopped and protein precipitated by addition of ice-cold trichloroacetic acid (TCA; 10% or 20% aqueous w/v). After brief storage in ice or at 4° C. for 2 hrs, the reaction mixture is filtered under vacuum through a glass fiber filter (2.5 cm disc, or 96-well filter plate). After washing with TCA and ethanol, the filter is dried and counted for tritium CPM after addition of scintillation fluid.
Incorporation of biotin-NAD into histone coated on plate is measured. A 96-well protein-binding EIA plate is coated with histone and blocked with bovine serum albumin. The reaction mixture (50 μL) contained DNA, buffer, enzyme, (test compound), and 250 μM of NAD and 5 μL of biotin-NAD (Trevigen). After reaction at room temperature the wells are washed and treated with Extravidin (Sigma). After incubation and washing color is developed with the peroxidase substrate TMB (Sigma). The TMB reaction is quenched with 2M sulfuric acid and the absorbance at 450 nm is read.

SMILES | IC50 [µM]
CCc1cc(-c2ccc(CNCCc3cnc[nH]3)s2)c(C)[nH]c1=O [Example 155, 3-Ethyl-5-(5-{[(2-(3H-imidazol-4-yl)ethylamino]methyl}thiophen-2-yl)-6-methyl-1H-pyridin-2-one dihydrochloride] | 0.71
CCc1cc(-c2ccc(S(=O)(=O)NCC(c3cccnc3)N3CCOCC3)s2)c(C)[nH]c1=O (stereo not drawn) [Example 72, 5-[5-Ethyl-2-methyl-6-oxo-1,6-dihydropyridin-3-yl]thiophene-2-sulfonic acid 2-(morpholin-4-yl)-2-(pyridin-3-yl)ethylamide dihydrochloride] | 1.2
CCc1cc(-c2ccc(S(=O)(=O)N3CCN(Cc4ccccc4)CC3)s2)c(C)[nH]c1=O [Example 100, 5-[5-(4-Benzylpiperazine-1-sulfonyl)thiophen-2-yl]-3-ethyl-6-methyl-1H-pyridin-2-one hydrochloride] | 2.2
CCc1cc(-c2ccc(CNCc3ccccn3)s2)c(C)[nH]c1=O [Example 195, 3-Ethyl-6-methyl-5-(5-{[(pyridin-2-ylmethyl)amino]methyl}thiophen-2-yl)-1H-pyridin-2-one hydrochloride] | 0.67
CCc1cc(-c2ccc(S(=O)(=O)N(C)C)s2)c(C)[nH]c1=O [Example 28, 5-(5-Ethyl-2-methyl-6-oxo-1,6-dihydropyridin-3-yl)thiophene-2-sulfonic acid dimethylamide] | 0.72
CCc1cc(-c2ccc(CNCC3CCN(Cc4cc(F)cc(F)c4)CC3)s2)c(C)[nH]c1=O [Example 140, 5-(5-{[1-(3,5-Difluoro-benzyl)-)-piperidin-4-ylmethyl]-amino}methyl-thiophen-2-yl)-3-ethyl-6-methyl-1H-pyridin-2-one hydrochloride] | 0.64
CCc1cc(-c2ccc(CNc3cc(F)cc(F)c3)s2)c(C)[nH]c1=O [Example 145, 5-{5-[(3,5-Difluoro-phenylamino)-methyl]thiophen-2-yl}-3-ethyl-6-methyl-1H-pyridin-2-one hydrochloride] | 4
CCc1cc(-c2ccc(CNCCN3CCCC3)s2)c(C)[nH]c1=O [Example 154, 3-Ethyl-6-methyl-5-{5-{[(2-pyrrolidin-1-ylethylamino)-methyl]thiophen-2-yl)-1H-pyridin-2-one dihydrochloride] | 0.53
CCc1cc(-c2ccc(S(=O)(=O)N3CCN(c4ccccc4)CC3)s2)c(C)[nH]c1=O [Example 24, 3-Ethyl-6-methyl-5-[5-(4-phenylpiperazine-1-sulfonyl)thiophen-2-yl]-1H-pyridin-2-one] | 0.63
CCc1cc(-c2ccc(S(=O)(=O)N3CCN(CCCN4CCCC4)CC3)s2)c(C)[nH]c1=O [Example 62, 3-Ethyl-6-methyl-5-{5-[4-(3-pyrrolidin-1-yl)propylpiperazine-1-sulfonyl]thiophen-2-yl}-1H-pyridin-2-one dihydrochloride] | 0.6
CCc1cc(-c2ccc(S(=O)(=O)N3CCN(C)CC3)s2)c(C)[nH]c1=O [Example 92, 3-Ethyl-6-methyl-5-[5-(4-methylpiperazine-1-sulfonyl)thiophen-2-yl]-1H-pyridin-2-one] | 1.3
CCc1cc(-c2ccc(CN3CCC(O)(c4ccccc4)CC3)s2)c(C)[nH]c1=O [Example 185, 3-Ethyl-5-[5-(4-hydroxy-4-phenylpiperidin-1-ylmethyl)thiophen-2-yl]-6-methyl-1H-pyridin-2-one hydrochloride] | 1.8
CCc1cc(-c2ccc(S(=O)(=O)NCc3ccc(N(C)C)nc3)s2)c(C)[nH]c1=O [Example 78, 5-(5-Ethyl-2-methyl-6-oxo-1,6-dihydropyridin-3-yl)thiophene-2-sulfonic acid [(6-dimethylaminopyridin-3-yl)methyl]amide hydrochloride] | 0.2
CCc1cc(-c2ccc(S(=O)(=O)N3CCC(N4CCCC4)CC3)s2)c(C)[nH]c1=O [Example 66, 3-Ethyl-6-methyl-5-{5-[(4-pyrrolidin-1-yl)piperidine-1-sulfonyl]thiophen-2-yl}-1H-pyridin-2-one hydrochloride] | 0.67
CCc1cc(-c2ccc(CNC3CCc4ccccc4C3)s2)c(C)[nH]c1=O (stereo not drawn) [Example 134, 3-Ethyl-6-methyl-5-{5-[(1,2,3,4-tetrahydro-naphthalen-2-ylamino)-methyl]thiophen-2-yl}-1H-pyridin-2-one hydrochloride] | 0.8
CCc1cc(-c2ccc(CNCc3cccc(C(F)(F)F)c3F)s2)c(C)[nH]c1=O [Example 178, 3-Ethyl-5-{5-[(2-fluoro-3-trifluoromethylbenzylamino)methyl](thiophen-2-yl)-6-methyl-1H-pyridin-2-one hydrochloride] | 0.4
CCc1cc(-c2ccc(CN3CCC(N4CCCCC4)CC3)s2)c(C)[nH]c1=O [Example 129, 5-(5-[1,4′]Bipiperidinyl-1′-ylmethyl-thiophen-2-yl)-3-ethyl-6-methyl-1H-pyridin-2-one dihydrochloride] | 1.8
CCc1cc(-c2ccc(S(=O)(=O)N3CCC(C(=O)c4ccccc4)CC3)s2)c(C)[nH]c1=O [Example 108, 5-[5-(4-Benzoylpiperidine-1-sulfonyl)thiophen-2-yl]-3-ethyl-6-methyl-1H-pyridin-2-one] | 1
CCc1cc(-c2ccc(S(=O)(=O)NCC3CCN(C(=O)OC(C)(C)C)CC3)s2)c(C)[nH]c1=O [Example 41-1, 5-(5-Ethyl-2-methyl-6-oxo-1,6-dihydropyridin-3-yl)thiophene-2-sulfonic acid (1-tert-butyloxycarbonylpiperidin-4-yl)methylamide] | 1.5
CCc1cc(-c2ccc(S(=O)(=O)NC3CCN(CC4CC4)CC3)s2)c(C)[nH]c1=O [Example 74, 5-[5-Ethyl-2-methyl-6-oxo-1,6-dihydropyridin-3-yl]thiophene-2-sulfonic acid (1-cyclopropylmethylpiperidin-4-yl)amide hydrochloride] | 0.36
CCc1cc(-c2ccc(S(=O)(=O)N3CCN(Cc4ccncc4)CC3)s2)c(C)[nH]c1=O [Example 58, 3-Ethyl-6-methyl-5-[5-(4-pyridin-4-yl)methylpiperizine-1-sulfonyl]thiophen-2-yl}1H-pyridin-2-one dihydrochloride] | 2.3
CCc1cc(-c2ccc(S(=O)(=O)NC3CCN(Cc4ccc(Cl)cc4)CC3)s2)c(C)[nH]c1=O [Example 76, 5-[5-Ethyl-2-methyl-6-oxo-1,6-dihydropyridin-3-yl]-thiophene-2-sulfonic acid 1-(4-chlorobenzyl)piperidin-4-yl]amide hydrochloride] | 0.23
CCc1cc(-c2ccc(CNC3CCC3)s2)c(C)[nH]c1=O [Example 137, 5-(5-Cyclobutylaminomethyl-thiophen-2-yl)-3-ethyl-6-methyl-1H-pyridin-2-one hydrochloride] | 0.52
CCc1cc(-c2ccc(S(=O)(=O)NCCN3CCCCC3)s2)c(C)[nH]c1=O [Example 69, 5-[5-Ethyl-2-methyl-6-oxo-1,6-dihydropyridin-3-yl]thiophene-2-sulfonic acid (2-piperidin-1-yl)ethylamide hydrochloride] | 0.26
CCc1cc(-c2ccc(S(=O)(=O)NCCN3CCCC3)o2)c(C)[nH]c1=O [Example 53, 5-(5-Ethyl-2-methyl-6-oxo-1,6-dihydropyridin-3-yl)furan-2-sulfonic acid (2-pyrrolidin-1-yl)ethylamide hydrochloride] | 0.16
CCc1cc(-c2ccc(S(=O)(=O)NCc3ccc4c(c3)OCO4)s2)c(C)[nH]c1=O [Example 103, 5-(5-Ethyl-2-methyl-6-oxo-1,6-dihydropyridin-3-yl)-thiophene-2-sulfonic acid (1,3-benzodioxol-5-ylmethyl)amide] | 0.14
CCc1cc(-c2ccc(S(=O)(=O)NCCC3CCCN3C)s2)c(C)[nH]c1=O (stereo not drawn) [Example 36, 5-(5-Ethyl-2-methyl-6-oxo-1,6-dihydropyridin-3-yl)thiophene-2-sulfonic Acid [2-(1-methylpyrrolidin-2-yl)ethyl]amide hydrochloride] | 3.7
